Assays:
[1] = system: GFP-Ck18 mES reporter cells; assay: mES GFP-Ck18 reporter cell differentiation towards hepatocytes, GFP fluorescence intensity; format: cell-based, mouse; settings: after 21 days of differentiation; normalized to DAPI; FIG. 8
Experimental: FIG. 8: Defective hepatocyte differentiation upon teratogenic compound exposure. mES GFP-Ck18 reporter cells were exposed to different teratogenic compounds during mES cell differentiation towards hepatocytes. After 21 days, fluorescence intensity of the hepatocyte specific GFP-Ck18 reporter was measured using microscopy and quantified using Fiji image processing software. GFP intensity was normalized to nuclear intensity measured using DAPI. Presented values are expressed as percentages of control. Student t-test was used for determination of significance. *p<0.05 **p<0.01.*** p<0.001.
Hepatocyte differentiation was started from a monolayer of mES cells on day −1. On day 0, differentiation medium supplemented with Activin A was added. On day 4, the medium was replaced with liver differentiation medium (DMEM containing 10% serum, PS, NEAA and 2-mercaptoethanol) with aFGF and sodium butyrate. On day 9, the medium was replaced with liver differentiation medium containing HGF. On day 14, cells were exposed to liver differentiation medium containing Dexamethasone and Oncostatin M. From day 17 onwards, liver differentiation medium was refreshed every 3-4 days. Endpoint of differentiation was set on day 21.
mES cells were seeded on gelatin-coated culture dishes 24 h prior to transfection. […] GFP expression in differentiated cells was determined by flow cytometry.

[2] = system: mES cells differentiated towards cardiomyocytes; assay: mES cell differentiation towards cardiomyocytes, beating embryoid bodies counted; format: cell-based, mouse; settings: after 13 days of differentiation; FIG. 5B
From the text: FIG. 5: Defective cardiomyocyte differentiation upon teratogenic compound exposure. mES cells were exposed to teratogenic compounds during mES cell differentiation towards cardiomyocytes. The percentage of beating 3D embryoid bodies (examples in A), representing functional cardiomyocytes, was counted. (B) Quantification of beating bodies. Presented values are expressed as percentages of control. Students t-test was used to determine significance. *p<0.05, **p<0.01, ***p<0.001.
For cardiomyocyte differentiation embryonic bodies were used, formed by hanging drops containing 750 cells in Iscoves's Modified Dulbecco's Medium (IMDM). Prior to hanging drop formation, cells were cultured on gelatine-coated dishes in IMDM supplemented with 20% FBS. Cells were detached with cell dissociation buffer (Gibco). After 3 days, embryonic bodies were transferred to a bacterial plate in differentiation medium (IMDM, 10% serum (unless specified otherwise), PS, NEAA and 2-mercapto ethanol). On day 5, the bodies were transferred to a 48-well plate in differentiation medium containing 2% serum, BMP, Activin A, Chir99021 and Xav939. On day 7 embryonic bodies were exposed to only Xav939 in differentiation medium and on day 11 all growth factors were removed and replaced with differentiation medium. Day 13 was used as endpoint for cardiomyocyte differentiation. On this day, beating bodies were quantified and RNA samples collected.

[3] = system: hiPSC cells differentiated towards hepatocytes; assay: hiPSC differentiation towards hepatocytes in presence of compound, biomarker expression by qPCR; format: cell-based, human
Experimental: The hepatocyte differentiation protocol is based on (Chen et al., 2012, which is incorporated herein by reference). In brief, hiPSC cells were seeded on day −4 in mTESR medium on Matrigel. On day 0 the mTESR medium was replaced with RPMI medium containing B27, Activin A, Chir99021, HGF and PS. On day 3, the cells were refreshed with DMEM medium containing KO serum replacement, Glutamax, NEAA, 2-mercaptoethanol, DMSO and PS. On day 7, the medium was replaced with IMDM medium containing oncostatin M, dexamethasone, ITS, Glutamax, NEAA and PS. On day 10, 14 and 17, cells are refreshed with IMDM medium containing ITS, Glutamax, NEAA and PS. RNA samples were collected on day 0, day 7 and day 21 of differentiation.
(§1) To assess the effect of potential teratogenic agents, hiPSC were treated with the test material from day 0 until the end of differentiation. When differentiation medium was refreshed, fresh compound was added.
(§2) Induction of the biomarker expression was compared with the expression of the gene in undifferentiated cells using quantitative real-time PCR (qRT-PCR). At several time points during differentiation, total RNA was isolated using Trizol […]. Complementary DNA was synthesized using oligo(dT) primers and SuperScript […] ReverseTranscriptase (Invitrogen) according to the manufacturer's protocol. Expression of biomarker genes was determined using specific primers (SEQ ID NOs: 68-99, 105 and 106) spanning the exon-exon boundaries of the genes with the PowerUP SYBR Green Master Mix (Applied Biosystems) on a Quantstudio 5 Real-Time PCR System (Applied Biosystems) using ROX as a passive reference. Relative expression was normalized using expression of the GAPDH and HPRT genes.

[4] = system: hiPSC cells differentiated towards neural rosettes; assay: hiPSC differentiation towards neural rosettes in presence of compound, biomarker expression by qPCR; format: cell-based, human; settings: compound added during differentiation, day 0 until end, FIG. 2
Experimental: The protocol for neural differentiation is based on (Lippmann, Estevez-Silva, & Ashton, 2014, which is incorporated herein by reference). In short, hiPSC were seeded in mTESR medium on Matrigel on day −1. On day 0, medium was replaced with E6 medium with PS to start differentiation. Medium was refreshed with E6 medium on Day 3 and 7. RNA samples were collected on day 0, day 7 and day 10.
as §1, §2

[5] = system: hiPSC cells differentiated towards cardiomyocytes; assay: hiPSC differentiation towards cardiomyocytes in presence of compound, biomarker expression by qPCR; format: cell-based, human
Experimental: Briefly, on day −4, hiPSC cells were seeded in 24-well plates in mTESR medium on Matrigel. On day 0, the medium was replaced with BEL medium (IMDM, HF12 medium, PFHMII medium, BSA, ITS-X, CD lipids, α-Monothioglycerol, Glutamax, PS and ascorbic acid) containing BMP4, Activin A and Chir99021. At day 3 of differentiation, the medium was refreshed with BEL containing Xav939. On day 7 and 10 of differentiation, the medium was replaced with BEL without growth factors. RNA samples were collected on day 0, day 7 and day 14 of differentiation.
Induction of the biomarker expression was compared with the expression of the gene in undifferentiated cells using quantitative real-time PCR (qRT-PCR). At several time points during differentiation, total RNA was isolated using Trizol (Qiagen). Complementary DNA was synthesized using oligo(dT) primers and SuperScript VI ReverseTranscriptase (Invitrogen) according to the manufacturer's protocol. […] Relative expression was normalized using expression of the GAPDH and HPRT genes.

What does the source list for `O=c1[nH]cc(F)c(=O)[nH]1` [5′fluoracil, 5-fluorouracil]?
GFP-Ck18 intensity [1]: significantly reduced; beating cardiomyocytes (beating embryoid bodies) [2]: decrease

For `C=CC(N)=O` [acrylamide], which “biomarker expression during hepatocyte differentiation” value ([3]; compound present during differentiation, qPCR, T-test vs vehicle control, FIG. 3) is on record?
The value was “no significant reduction”.

How did the “beating cardiomyocytes (beating embryoid bodies)” value [2] turn out when `O=C1NC(=O)C(c2ccccc2)(c2ccccc2)N1` [diphenylhydantoin] was run?
Its value is “decrease”.

`CC1=C(/C=C/C(C)=C/C=C/C(C)=C/C(=O)O)C(C)(C)CCC1` [retinoic acid, All-trans retinoic acid] was tested. Which GFP-Ck18 intensity [1] did it give?
Its GFP-Ck18 intensity is “significantly reduced”.

What about the “Expression of AFP in hepatocytes” value [3] of the same molecule?
Its value is “reduced”.

What about the “Expression of ALB in hepatocytes” value [3] of the same molecule?
Its value is “reduced”.

What about the “Expression of PAX6 in neural rosettes” value [4] of the same molecule?
Its value is “reduced”.

What about the “beating cardiomyocytes (beating embryoid bodies)” value [2] of the same molecule?
The value was “decrease”.

And the “Expression of MYH6 in cardiomyocytes” value [5]?
The value was “reduced”.

From patent US20220260552A1, “Methods to determine the effect of an agent on mammalian embryonic development” (Toxys B.V., priority 2019, published 2022)
